Reference: patent publication US10858386B2, “Drug compound and purification methods thereof” (Otsuka Pharmaceutical Co., Ltd., priority 2017, dated 2020)
“And” between values parts separate entries of the source, which are not always exact repeats. Identical values can stand only once.

How the values were obtained:
Assay type in all cases: physicochemical
[1] = Thermogravimetric analysis (TGA) weight loss of the lyophilized product
Description: TGA can be used as a corroborative method for residual moisture determination where the change in weight is attributed to the evolution of volatile substances, such as water. In addition, TGA can be used to deter mine physico-chemical changes as the specimen begins to decompose at elevated temperatures.
TGA monitors the change in weight of a material as a function of temperature or time with heating. The analysis can be performed using a TA Instruments QSO per USP 891, Thermal Analysis. Test parameters and data analysis can conducted using TA Instruments Universal Analysis® software version 4.5A on a PC interface.
Solid material, with a weight of about 13 mg to about 19 mg, can be placed in an open ceramic sample pan. The sample is then heated from 25° C. to 400° C. using a warming rate of about 10° C. per minute to measure the weight loss across the temperature range. Nitrogen, NF is used to purge the sample continuously at a flow rate of 60 mL/minute. The instrument is calibrated at temperatures that span the range of high temperature analysis.
The lyophilized material is warmed and the sample weight can be monitored for any change. During warming, weight loss is correlated to the evolution of volatile components in the sample. Calculations identify the sample weight correlated to a temperature.

[2] = Reconstitution time of the lyophilized product in the diluent (65% propylene glycol, 25% glycerin, 10% ethanol); details: 1 mL diluent
Description: (§1) The requirements of a constituted solution are that there is no visible insoluble material and the solution is no less clear than the diluent after a predetermined amount of time. The volume for reconstitution can return the product to the same volume and concentration as the bulk solution used for filling or may be the volume intended for patient delivery in a clinical setting.
For reconstitution, a specified volume of a diluent can be drawn up into a syringe. The diluent can then be extruded into the center of the dried cake of the product and the timer started. The product is then inspected at approximately 5 second intervals to determine the time material dissolved.
Reconstitution was performed by extruding 1 mL of diluent into each vial using a vial adapter or syringe and allowing the vials to sit undisturbed until clear.
(§2) Following lyophilization, the lyophilized samples were analysed for purity (% purity by HPLC), DMSO residual content, and residual moisture. The samples were reconstituted by dissolving them in the non-aqueous solvent system described in TABLE 11 below and the reconstitution time and appearance of the reconstituted formulations were analysed.

[3] = Turbidity of pooled reconstituted samples (Hach 2100AN turbidimeter, NTU)
Description: Turbidity monitors the transmission of light through a liquid sample to determine whether the sample is clear or the degree of opalescence in the sample. The analysis can be performed using a Hach Model 2100AN Laboratory Turbidimeter. The Hach Model 2100AN is a ratio turbidimeter that uses the ratio of transmitted to scattered light to reduce error in the measurement caused by colored solutions.
Prior to each use, the Turbidimeter is calibrated with a Hach StabCal® Calibration Kit and then checked using Hach Gelex® Secondary Turbidity Standards. Sample cells are cleaned and oiled to reduce interference by dirt or imperfections in the glass. Sample cell indexing matches cells with similar interference for sample comparison.
Reconstituted samples can be pooled to achieve at least 2.5 mL of sample, which is placed in the indexed sample cells for analysis. The turbidimeter measures the opalescence and returns a value in nephelometric turbidity units (NTU) ratio. This value was recorded by the instrument with a time and date stamp to track each sample.

[4] = Appearance of the reconstituted solution
Experimental: as §1, §2

[5] = Example 8 Study E: low shelf temperature, low chamber pressure, 15 microns in secondary drying
[6] = Example 8 Study F: target parameters of TABLE 18
[7] = Example 8 Study E, 3 pooled samples per lot

Compound	Weight Loss (% w/w), Total (TGA) ([1]; Example 8 Study F)	Weight Loss (% w/w), Total (TGA) ([1]; Example 8 Study G, one vial)	Average Recon Time (min) [2, 5]	Average Recon Time (min) [2, 6]	Turbidity (NTU) [3, 7]	TGA total weight loss ([1]; Example 2 full load, TABLE 6 cycle) [%]	Weight Loss (% w/w), Total (TGA) ([1]; Example 8 Study B, vial 1 and 2)	TGA mass loss ([1]; Example 8 repeat of Study H, one vial)	Appearance of reconstituted solution ([4]; Example 7, lyophilization procedure of TABLE 16)	Appearance of reconstituted solution ([4]; Example 8 Study A)	Appearance of reconstituted solution ([4]; Example 8 Study B)	Appearance of reconstituted solution ([4]; Example 8 Study C)	Appearance of reconstituted solution ([4]; Example 8 Study D)	Appearance of reconstituted solution ([4]; Example 8 Study E)	Appearance of reconstituted solution ([4]; Example 8 Study F)	Appearance of reconstituted solution ([4]; Example 8 Study G)	Appearance of reconstituted solution ([4]; Example 8 Study H)	Appearance of reconstituted solution ([4]; Example 8 repeat of Study H)	Average Recon Time [2, 6] [min]	Turbidity (NTU) ([3]; Example 8 Study G, 3 pooled samples)
Nc1ncn(C2CC(OP(=O)([O-])OCC3OC(n4cnc5c(=O)[nH]c(N)nc54)CC3O)C(CO)O2)c(=O)n1.[Na+] (stereo not drawn) [Lot 1]	Total: 18.93 % w/w	Total: 16.7 % w/w	Lot 1: 17 min	Lot 1: 17.3 min	0.799 NTU and 0.833 NTU and 0.756 NTU															
Nc1ncn(C2CC(OP(=O)([O-])OCC3OC(n4cnc5c(=O)[nH]c(N)nc54)CC3O)C(CO)O2)c(=O)n1.[Na+] (stereo not drawn) [Lot 2]	Total: 19.82 % w/w		Lot 2: 17 min	Lot 2: 18 min	0.795 NTU and 0.808 NTU and 0.867 NTU															
Nc1ncn([C@H]2CC(OP(=O)(O)OC[C@H]3O[C@@H](n4cnc5c(=O)[nH]c(N)nc54)CC3O)[C@@H](CO)O2)c(=O)n1 (stereo partly drawn) [compound of Formula (1)]	approximately 19 % w/w	approximately 17 % w/w			below 3 NTU	17	17.35 % w/w and 18.07 % w/w	about 17 % w/w	clear reconstituted solution	clear and colorless solutions	clear and colorless solutions	clear and colorless solutions	clear and colorless solutions	clear and colorless solutions	clear and colorless solutions	clear and colorless solutions	clear and colorless solutions	clear and colorless solutions	17 to 18	16.9 NTU and 16 NTU and 19 NTU
